Test results published in ChEMBL document CHEMBL1201862, “PubChem BioAssay data set” (2004).
Calls of active or inactive are those of the source.

Assays:
[1] = target: T1, Sentrin-specific protease 8 (Homo sapiens, UniProt Q96LD8); test: SENP8 protease inhibitors, SAR follow-up, biochemical, luminescence (AID 504501); format: functional
T1 sequence (Q96LD8 whole entry): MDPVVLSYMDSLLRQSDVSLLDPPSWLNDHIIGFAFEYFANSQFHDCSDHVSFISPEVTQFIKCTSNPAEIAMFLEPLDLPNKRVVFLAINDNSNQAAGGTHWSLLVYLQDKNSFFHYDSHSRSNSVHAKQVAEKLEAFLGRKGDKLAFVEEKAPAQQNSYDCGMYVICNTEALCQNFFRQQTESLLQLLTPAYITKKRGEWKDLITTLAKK

[2] = target: T2, Sentrin-specific protease 7 (Homo sapiens, UniProt Q9BQF6); test: SENP7 protease inhibitors, SAR follow-up, biochemical, luminescence (AID 504497); format: functional
T2 sequence (Q9BQF6 whole entry): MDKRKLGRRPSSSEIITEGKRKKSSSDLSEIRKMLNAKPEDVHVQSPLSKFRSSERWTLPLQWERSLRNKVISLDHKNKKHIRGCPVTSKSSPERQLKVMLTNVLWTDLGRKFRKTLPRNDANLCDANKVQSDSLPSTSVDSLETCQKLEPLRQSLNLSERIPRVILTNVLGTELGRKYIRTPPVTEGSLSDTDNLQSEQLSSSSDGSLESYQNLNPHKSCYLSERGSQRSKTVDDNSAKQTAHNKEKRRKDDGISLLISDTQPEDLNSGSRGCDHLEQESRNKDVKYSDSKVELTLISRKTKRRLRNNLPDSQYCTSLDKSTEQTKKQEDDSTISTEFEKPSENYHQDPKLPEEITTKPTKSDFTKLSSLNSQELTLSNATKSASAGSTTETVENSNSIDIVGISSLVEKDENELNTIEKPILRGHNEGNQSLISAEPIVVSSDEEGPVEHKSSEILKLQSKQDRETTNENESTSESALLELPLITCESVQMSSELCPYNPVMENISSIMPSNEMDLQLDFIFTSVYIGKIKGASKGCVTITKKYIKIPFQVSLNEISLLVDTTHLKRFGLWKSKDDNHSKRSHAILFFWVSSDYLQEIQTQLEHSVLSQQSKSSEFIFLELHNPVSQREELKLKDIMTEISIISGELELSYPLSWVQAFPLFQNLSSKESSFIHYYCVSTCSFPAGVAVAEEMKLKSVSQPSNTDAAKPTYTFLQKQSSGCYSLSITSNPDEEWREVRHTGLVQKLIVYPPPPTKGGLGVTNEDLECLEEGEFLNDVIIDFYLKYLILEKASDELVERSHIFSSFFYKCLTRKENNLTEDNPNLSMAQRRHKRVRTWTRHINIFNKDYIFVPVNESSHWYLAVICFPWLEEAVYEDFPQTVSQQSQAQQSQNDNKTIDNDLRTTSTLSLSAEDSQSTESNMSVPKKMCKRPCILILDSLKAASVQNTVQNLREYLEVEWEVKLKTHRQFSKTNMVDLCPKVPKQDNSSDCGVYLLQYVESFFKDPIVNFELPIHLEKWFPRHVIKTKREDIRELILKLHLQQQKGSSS

[3] = target: T3, Caspase-3 (Homo sapiens, UniProt P42574); test: SAR Analysis of small molecule inhibitors of Sentrin-specific proteases (SENPs) using a Caspase-3 Selectivity assay. [Related pubchem assays (depositor defined):AID2540, AID2599, AID434973, AID489001]; format: functional
T3 sequence (P42574 whole entry): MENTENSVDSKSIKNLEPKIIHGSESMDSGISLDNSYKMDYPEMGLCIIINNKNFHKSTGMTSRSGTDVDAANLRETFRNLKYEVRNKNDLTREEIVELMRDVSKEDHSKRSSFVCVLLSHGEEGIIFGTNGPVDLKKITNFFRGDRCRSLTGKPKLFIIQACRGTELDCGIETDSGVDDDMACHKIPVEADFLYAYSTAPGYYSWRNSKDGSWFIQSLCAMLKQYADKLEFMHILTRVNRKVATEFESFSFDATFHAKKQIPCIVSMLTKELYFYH

[4] = target: T4, Sentrin-specific protease 6 (Homo sapiens, UniProt Q9GZR1); test: SAR Analysis of small molecule inhibitors of Sentrin-specific protease 6 (SENP6) using a Luminescent assay. [Related pubchem assays (depositor defined):AID2582, AID2599]; format: functional
T4 sequence (Q9GZR1 whole entry): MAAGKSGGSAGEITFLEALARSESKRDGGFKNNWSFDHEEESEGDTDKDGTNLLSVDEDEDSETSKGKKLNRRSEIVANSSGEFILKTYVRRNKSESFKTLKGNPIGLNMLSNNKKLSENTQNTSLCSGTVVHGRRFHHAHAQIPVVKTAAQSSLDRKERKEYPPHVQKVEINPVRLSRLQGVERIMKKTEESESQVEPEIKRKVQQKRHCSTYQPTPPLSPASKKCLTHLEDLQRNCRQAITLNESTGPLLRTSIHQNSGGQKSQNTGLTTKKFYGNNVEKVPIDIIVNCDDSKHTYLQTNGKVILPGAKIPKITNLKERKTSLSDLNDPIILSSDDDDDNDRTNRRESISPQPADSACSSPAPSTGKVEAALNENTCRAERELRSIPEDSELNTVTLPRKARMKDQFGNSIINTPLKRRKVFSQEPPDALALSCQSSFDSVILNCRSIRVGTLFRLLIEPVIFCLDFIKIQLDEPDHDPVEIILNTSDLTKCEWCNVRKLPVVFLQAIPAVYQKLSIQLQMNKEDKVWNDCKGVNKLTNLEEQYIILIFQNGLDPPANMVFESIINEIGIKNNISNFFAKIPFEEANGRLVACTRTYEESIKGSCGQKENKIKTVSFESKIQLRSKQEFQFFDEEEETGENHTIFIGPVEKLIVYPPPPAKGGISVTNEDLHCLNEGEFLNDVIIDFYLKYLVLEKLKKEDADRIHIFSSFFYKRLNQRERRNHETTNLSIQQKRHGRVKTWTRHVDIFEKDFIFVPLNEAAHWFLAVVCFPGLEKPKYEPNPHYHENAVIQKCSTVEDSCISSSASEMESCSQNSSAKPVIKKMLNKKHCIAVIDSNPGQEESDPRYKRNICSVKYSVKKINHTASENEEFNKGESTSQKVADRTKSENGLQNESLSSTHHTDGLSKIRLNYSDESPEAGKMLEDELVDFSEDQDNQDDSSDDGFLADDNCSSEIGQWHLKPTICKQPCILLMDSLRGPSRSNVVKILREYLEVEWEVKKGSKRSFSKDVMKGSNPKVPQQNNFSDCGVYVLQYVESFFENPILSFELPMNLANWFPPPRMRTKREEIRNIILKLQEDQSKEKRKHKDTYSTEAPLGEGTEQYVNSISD

[5] = Luminescence Cell-Based Dose Confirmation HTS to Identify Activators of 5'UTR Stem-Loop Driven Alpha-Synuclein mRNA Translation in H4 Neuroglioblastoma Cells. [Related pubchem assays: 1829 (Project Summary), 1814 (Primary HTS)]; format: functional
[6] = target: T2, Sentrin-specific protease 7; format: functional
[7] = target: T4, Sentrin-specific protease 6; format: functional
[8] = test system: H4; test: Luminescence Cell-Based Dose Response HTS to Identify Activators of 5'UTR Stem-Loop Driven Prion Protein mRNA Translation in H4 Neuroglioblastoma Cells. [Related pubchem assays: 1829 (Project Summary), 1814 (Primary HTS)]; format: functional; settings: Homo sapiens
[9] = target: T3, Caspase-3; format: functional
[10] = target: T1, Sentrin-specific protease 8; format: functional
[11] = target: T5, High affinity choline transporter 1 (Homo sapiens, UniProt Q9GZV3); test: CHT inhibitors, dose response, cell-based, 5-point CRC, membrane potential dye (AID 504840); format: functional
T5 sequence (Q9GZV3 whole entry): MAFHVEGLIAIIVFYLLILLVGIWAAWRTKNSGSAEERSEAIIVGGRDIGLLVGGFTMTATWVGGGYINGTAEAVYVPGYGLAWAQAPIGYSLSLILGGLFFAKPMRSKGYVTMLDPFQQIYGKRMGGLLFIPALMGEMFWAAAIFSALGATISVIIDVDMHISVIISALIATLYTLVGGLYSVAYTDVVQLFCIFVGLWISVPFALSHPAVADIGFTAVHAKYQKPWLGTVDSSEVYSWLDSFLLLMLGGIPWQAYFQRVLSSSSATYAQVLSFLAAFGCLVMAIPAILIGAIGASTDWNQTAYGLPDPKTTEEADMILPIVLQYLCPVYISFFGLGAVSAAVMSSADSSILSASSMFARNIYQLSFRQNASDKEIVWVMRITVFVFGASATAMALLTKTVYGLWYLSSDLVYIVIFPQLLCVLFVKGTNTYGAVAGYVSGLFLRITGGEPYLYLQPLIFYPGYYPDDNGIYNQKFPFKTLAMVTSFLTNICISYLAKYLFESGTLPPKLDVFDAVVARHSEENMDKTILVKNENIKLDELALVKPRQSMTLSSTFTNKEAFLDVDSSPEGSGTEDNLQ

[12] = target: T5, High affinity choline transporter 1; test: CHT inhibitors, dose response, cell-based, 10-point CRC, membrane potential dye (AID 588401); format: functional;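 also: membrane potential dye fluorescence of choline-evoked depolarization via CHT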
[13] = test system: Streptococcus sp. 'group A'; test: growth inhibition of control SK(-) GAS strain, dose response, counter-screen for streptokinase expression inhibitor project, luminescence, kanamycin, BacTiterGlo, confirmation (AID 1900); format: functional, organism-based
[14] = target: T6, Aminopeptidase N (Plasmodium falciparum FcB1/Columbia, UniProt O96935); test: P. falciparum M1AAP inhibitors, biochemical, fluorogenic H-Leu-NHMec substrate, 1536-well (AID 1445); parameters: species or system Plasmodium falciparum 3D7, 3D7
T6 sequence (O96935 whole entry): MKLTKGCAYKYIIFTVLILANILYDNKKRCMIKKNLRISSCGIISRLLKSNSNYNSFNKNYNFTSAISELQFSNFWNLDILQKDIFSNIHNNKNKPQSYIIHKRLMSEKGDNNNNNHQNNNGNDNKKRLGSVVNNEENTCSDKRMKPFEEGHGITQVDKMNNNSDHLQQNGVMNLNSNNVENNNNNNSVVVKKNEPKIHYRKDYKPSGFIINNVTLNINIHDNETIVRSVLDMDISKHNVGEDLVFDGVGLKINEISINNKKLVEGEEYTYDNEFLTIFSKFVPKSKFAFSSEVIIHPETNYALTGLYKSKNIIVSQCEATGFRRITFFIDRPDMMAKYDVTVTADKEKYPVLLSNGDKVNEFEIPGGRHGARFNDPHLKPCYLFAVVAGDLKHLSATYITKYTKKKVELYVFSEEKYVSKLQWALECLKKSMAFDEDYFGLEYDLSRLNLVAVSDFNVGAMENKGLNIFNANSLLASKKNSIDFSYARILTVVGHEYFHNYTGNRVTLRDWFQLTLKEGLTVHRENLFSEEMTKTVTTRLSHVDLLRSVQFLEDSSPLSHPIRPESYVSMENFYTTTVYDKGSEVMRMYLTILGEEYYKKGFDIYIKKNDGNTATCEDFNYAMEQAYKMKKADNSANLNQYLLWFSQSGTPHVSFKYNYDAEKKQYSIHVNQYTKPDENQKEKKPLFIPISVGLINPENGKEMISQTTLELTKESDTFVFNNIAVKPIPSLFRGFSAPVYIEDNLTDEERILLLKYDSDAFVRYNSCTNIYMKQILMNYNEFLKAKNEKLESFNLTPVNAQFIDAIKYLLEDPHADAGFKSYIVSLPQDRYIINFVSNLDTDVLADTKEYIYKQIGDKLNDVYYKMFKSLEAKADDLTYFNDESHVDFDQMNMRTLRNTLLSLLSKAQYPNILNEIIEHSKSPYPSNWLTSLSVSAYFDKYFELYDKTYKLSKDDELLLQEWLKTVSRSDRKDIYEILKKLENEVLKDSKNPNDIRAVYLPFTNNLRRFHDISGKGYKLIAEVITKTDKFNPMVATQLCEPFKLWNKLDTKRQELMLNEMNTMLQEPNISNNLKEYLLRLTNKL

[15] = test system: Streptococcus; test: Group A Streptococcus viability loss, dose response, counter-screen for streptokinase expression inhibitor project, luminescence, BacTiterGlo (AID 1915); format: functional, organism-based;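 also: potency for reduction of bacterial viability or growth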
[16] = target: Genome polyprotein (dengue virus type 2, UniProt P29990); test: Dengue-2 NS5 methyltransferase inhibitors, primary screen, biochemical, confirmation dose response (AID 588689); format: functional
Chain of Genome polyprotein (P29990 2492-3391 limits assumed): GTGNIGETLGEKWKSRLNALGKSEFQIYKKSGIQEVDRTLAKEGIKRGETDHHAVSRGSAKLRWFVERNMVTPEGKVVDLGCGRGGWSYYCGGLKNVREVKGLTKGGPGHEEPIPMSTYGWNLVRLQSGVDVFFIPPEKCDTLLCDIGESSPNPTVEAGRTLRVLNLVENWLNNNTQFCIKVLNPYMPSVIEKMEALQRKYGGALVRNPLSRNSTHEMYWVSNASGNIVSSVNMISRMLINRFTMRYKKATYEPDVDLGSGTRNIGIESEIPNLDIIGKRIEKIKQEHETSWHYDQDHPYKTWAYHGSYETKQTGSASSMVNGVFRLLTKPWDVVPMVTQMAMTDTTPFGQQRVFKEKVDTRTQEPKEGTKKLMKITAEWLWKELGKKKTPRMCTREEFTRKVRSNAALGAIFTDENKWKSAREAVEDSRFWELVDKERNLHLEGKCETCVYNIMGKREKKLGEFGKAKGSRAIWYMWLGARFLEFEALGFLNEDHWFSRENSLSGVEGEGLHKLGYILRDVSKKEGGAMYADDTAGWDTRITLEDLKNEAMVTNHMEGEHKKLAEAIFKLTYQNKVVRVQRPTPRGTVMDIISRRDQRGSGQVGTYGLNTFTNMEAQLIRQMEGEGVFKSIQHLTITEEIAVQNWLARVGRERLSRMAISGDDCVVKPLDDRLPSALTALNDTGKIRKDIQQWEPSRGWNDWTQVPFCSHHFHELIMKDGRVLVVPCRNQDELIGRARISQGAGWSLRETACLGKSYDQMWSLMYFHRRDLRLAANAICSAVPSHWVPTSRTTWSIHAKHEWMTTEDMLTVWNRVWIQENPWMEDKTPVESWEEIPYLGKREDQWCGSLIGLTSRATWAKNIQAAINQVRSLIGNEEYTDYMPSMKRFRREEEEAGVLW

[17] = target: T7, Streptokinase A (Streptococcus pyogenes serotype M1, UniProt P10520); test: S. pyogenes streptokinase expression inhibitors, potency, dose response, plasminogen activation absorbance, OD405 (AID 1914); format: functional, Streptococcus pyogenes M1 GAS;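 also: secreted streptokinase activity via plasminogen activation per viability signal from cell pellet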
T7 sequence (P10520 whole entry): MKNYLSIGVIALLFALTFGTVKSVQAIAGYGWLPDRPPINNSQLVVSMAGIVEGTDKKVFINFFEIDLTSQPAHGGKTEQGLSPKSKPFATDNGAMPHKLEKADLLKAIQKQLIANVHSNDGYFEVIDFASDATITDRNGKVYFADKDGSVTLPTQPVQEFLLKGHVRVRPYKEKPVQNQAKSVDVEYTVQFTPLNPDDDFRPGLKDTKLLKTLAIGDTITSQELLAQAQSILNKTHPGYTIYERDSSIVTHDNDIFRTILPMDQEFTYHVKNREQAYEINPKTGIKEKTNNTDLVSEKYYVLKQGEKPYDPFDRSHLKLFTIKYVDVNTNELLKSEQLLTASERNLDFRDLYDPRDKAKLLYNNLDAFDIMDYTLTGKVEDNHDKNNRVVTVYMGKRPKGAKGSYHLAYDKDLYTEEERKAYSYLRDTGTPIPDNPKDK

SMILES | IC50 [1] | IC50 [2] | IC50 [3] | IC50 [4] | IC50 [11] | IC50 [12] | also measured
C(=N\Nc1ccccc1)/c1c[nH]c2ccccc12 | > 99 µM (inactive) | 25.7 µM (active) | > 99 µM (inactive) | > 99 µM (inactive) | – | – | –
O=C(O)c1ccc(N/N=C/c2cn(Cc3ccc(F)cc3)c3ccccc23)cc1 | 6.77 µM (active) | 5.08 µM (active) | 49.8 µM (active) | 6.8 µM (active) | – | – | EC50 [5]: > 120 µM (not active); IC50 [6]: 8.78 µM (active); IC50 [7]: 7.91 µM (active); EC50 [8]: > 120 µM (not active); IC50 [9]: 89.1 µM (active); IC50 [10]: 12.4 µM (active)
CC(C)(C)NCC(O)Cn1cc(C=O)c2ccccc21 (stereo not given) | – | – | – | – | 0.738 µM (active) | 0.113 µM (active) | –
O=C(COc1ccccc1Br)c1ccc(O)cc1O | – | – | – | – | 2.29 µM (active) | 11.2 µM (active) | –
COc1cc(/C=C2\SC(NS(=O)(=O)c3ccccc3)=NC2=O)c([N+](=O)[O-])cc1OC | – | – | – | – | 4.17 µM (active) | 8.91 µM (active) | EC50 [13]: 25.6 µM (active); IC50 [14]: 25.5 µM (active); EC50 [15]: > 150 µM (not active); IC50 [16]: 43.4 µM (active); EC50 [17]: > 150 µM (not active)
